Consider 8 compounds from patent publication US11345711B2, “8,9-dihydroimidazo[1,2-a]pyrimido[5,4-e]pyrimidin-5(6H)-ones” (IMPACT THERAPEUTICS (SHANGHAI), INC, priority 2016, dated 2022).

In one test the test system is LoVo cells. Put plainly: MTT based cell viability assay on LoVo cells. Particulars: Homo sapiens, LoVo, 72 h, 3 d, read-out: IC50, growth inhibition of LoVo cells. The method in brief:
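Inhibition of LoVo proliferation was derived as IC50 from a sigmoidal dose-response fit of cell survival. Readout was MTT (0.5 mg/mL, 4 h) with absorbance at 552/630/690 nm, after 3-day treatment at 37 °C. Eight-point series from 10 μM to 0.01 μM, DMSO control, 1% DMSO final.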

The target in the next test is Wee1 (h) (Homo sapiens, UniProt P30291). Briefly: Wee1 kinase (h) detection method, [γ-33P]-ATP filter assay. The format is biochemical.
Sequence of Wee1 (h) (P30291 whole entry): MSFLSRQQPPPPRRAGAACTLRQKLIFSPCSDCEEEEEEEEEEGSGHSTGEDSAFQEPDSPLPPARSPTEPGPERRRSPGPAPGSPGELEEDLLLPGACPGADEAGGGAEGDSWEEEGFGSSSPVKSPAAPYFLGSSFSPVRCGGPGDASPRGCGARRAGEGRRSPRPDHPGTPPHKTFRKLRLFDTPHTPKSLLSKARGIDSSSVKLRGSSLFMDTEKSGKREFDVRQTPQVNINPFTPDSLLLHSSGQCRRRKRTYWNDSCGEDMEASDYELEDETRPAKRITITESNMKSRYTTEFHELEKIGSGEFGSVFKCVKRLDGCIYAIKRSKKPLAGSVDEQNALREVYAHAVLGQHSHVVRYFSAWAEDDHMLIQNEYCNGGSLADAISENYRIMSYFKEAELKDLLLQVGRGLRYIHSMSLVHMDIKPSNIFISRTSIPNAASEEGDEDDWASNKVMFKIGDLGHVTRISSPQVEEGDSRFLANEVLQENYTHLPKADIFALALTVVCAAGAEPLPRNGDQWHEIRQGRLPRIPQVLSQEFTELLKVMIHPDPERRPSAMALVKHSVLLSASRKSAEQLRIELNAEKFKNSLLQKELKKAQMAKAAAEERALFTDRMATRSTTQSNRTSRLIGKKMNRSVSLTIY
The test system of a further test is NCI-H1299 cells. Briefly: MTT based cell viability assay on NCI-H1299 cells. Conditions: Homo sapiens, read-out: IC50, growth inhibition of NCI-H1299 cells. A digest of the protocol: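 NCI-H1299 cells (1000/well, settled overnight) were exposed for 3 d at 37 °C, 5% CO2, to an eight-point series of 10 μM to 0.01 μM plus DMSO blank, as prepared in DMSO (final DMSO 1‰). MTT (0.5 mg/mL, 4 h) was read at 552/630/690 nm. IC50 came from sigmoidal dose-response fits of survival.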

pIC50: −log10 of the molar value. Like-named read-outs stand apart in the source and are kept apart here. A value given as a limit tells only on which side of the number the result lay.

Broadly, the pIC50 is the negative decadic logarithm of the IC50, by convention in mol/L.

For `CN1CCN(c2cnc(Nc3ncc4c(n3)N3CCN=C3N(c3c(F)cccc3Cl)C4=O)cn2)CC1` [Example 121, 6-(2-Chloro-6-fluorophenyl)-2-((5-(4-methylpiperazin-1-yl)pyrazin-2-yl)amino)-8,9-dihydroimidazo[1,2-a]pyrimido[5,4-e]pyrimidin-5(6H)-one], the pIC50 is under 4.00 in the test with LoVo cells and under 5.00 in the test on NCI-H1299 cells (NCI-H1299 cells). In addition, the “Inh. (%) of Wee1 kinase enzyme activity” value on Wee1 (h) (C 1 μm compound) is reported as 15%.
As for `O=C1c2cnc(Nc3ccc(N4CCOCC4)cc3)nc2N2CCN=C2N1c1c(Cl)cccc1Cl` [Example 183, 6-(2,6-Dichlorophenyl)-2-((4-morpholinophenyl)amino)-8,9-dihydroimidazo[1,2-a]pyrimido[5,4-e]pyrimidin-5(6H)-one], the pIC50 is 6.11 in the test with LoVo cells and 5.98 in the test on NCI-H1299 cells (NCI-H1299 cells). In addition, the “Inh. (%) of Wee1 kinase enzyme activity” value on Wee1 (h) (C 1 μm compound) came to 95%.
As for `C[C@@H]1CN(c2c(Cl)cc(Nc3ncc4c(n3)N3CCN=C3N(c3c(Cl)cccc3Cl)C4=O)cc2Cl)C[C@H](C)N1C` [Example 136, 6-(2,6-Dichlorophenyl)-2-((3,5-dichloro-4-((3S,5R)-3,4,5-trimethylpiperazin-1-yl)phenyl)amino)-8,9-dihydroimidazo[1,2-a]pyrimido[5,4-e]pyrimidin-5(6H)-one], the pIC50 was 6.67 in the test with LoVo cells and 6.51 with NCI-H1299 cells (NCI-H1299, NCI-H1299 cells). The “Inh. (%) of Wee1 kinase enzyme activity” value at Wee1 (h) (C 0.01 μm compound) is 36%; at Wee1 (h) (C 0.1 μm compound) it was 75%; on Wee1 (h) (C 1 μm compound) it was 94%.
As to `CN(C)C1CCN(c2ccc(Nc3ncc4c(n3)N3CCN=C3N(c3c(F)cccc3Cl)C4=O)cc2F)CC1` [Example 116, 6-(2-Chloro-6-fluorophenyl)-2-((4-(4-(dimethylamino)piperidin-1-yl)-3-fluorophenyl)amino)-8,9-dihydroimidazo[1,2-a]pyrimido[5,4-e]pyrimidin-5(6H)-one], the negative logarithm of the IC50 (pIC50) in the test with LoVo cells was 6.91; in the test on NCI-H1299 cells (NCI-H1299, NCI-H1299 cells) it was 6.58. The “Inh. (%) of Wee1 kinase enzyme activity” value at Wee1 (h) (C 0.01 μm compound) was 19%; on Wee1 (h) (C 0.1 μm compound), 77%; at Wee1 (h) (C 1 μm compound) it was 98%.
As to `O=C1c2cnc(Nc3ccc(N4CCNCC4)cc3)nc2N2CCN=C2N1c1c(Cl)cccc1Cl` [Example 175, 6-(2,6-Dichlorophenyl)-2-((4-(piperazin-1-yl)phenyl)amino)-8,9-dihydroimidazo[1,2-a]pyrimido[5,4-e]pyrimidin-5(6H)-one], the values for the pIC50 in the test with LoVo cells and in the test on NCI-H1299 cells (NCI-H1299 cells) were 6.72 and 6.57, respectively. At Wee1 (h) (C 1 μm compound), the “Inh. (%) of Wee1 kinase enzyme activity” value was 95%.
For the compound `CN1CCN(c2ccc(Nc3ncc4c(n3)N3CCN=C3N(c3ccccc3)C4=O)cc2)CC1` [Example 96, 6-Phenyl-2-((4-(4-methylpiperazin-1-yl)phenyl)amino)-8,9-dihydroimidazo[1,2-a]pyrimido[5,4-e]pyrimidin-5(6H)-one], the pIC50 was under 4.00 in the test with LoVo cells and under 5.00 in the test with NCI-H1299 cells (NCI-H1299 cells). In addition, the “Inh. (%) of Wee1 kinase enzyme activity” value on Wee1 (h) (C 1 μm compound) is given as 29%.
For the compound `O=C1c2cnc(Nc3ccc(N4CCNCC4)c(Cl)c3)nc2N2CCN=C2N1c1c(Cl)cccc1Cl` [Example 176, 6-(2,6-Dichlorophenyl)-2-((3-chloro-4-(piperazin-1-yl)phenyl)amino)-8,9-dihydroimidazo[1,2-a]pyrimido[5,4-e]pyrimidin-5(6H)-one], the pIC50 with LoVo cells is 7.13; with NCI-H1299 cells (NCI-H1299 cells) it was 6.90. Moreover, the “Inh. (%) of Wee1 kinase enzyme activity” value at Wee1 (h) (C 1 μm compound) is listed as 96%.
Turning to `CN(C)CCNc1ccc(Nc2ncc3c(n2)N2CCN=C2N(c2c(F)cccc2Cl)C3=O)cc1` [Example 108, 6-(2-Chloro-6-fluorophenyl)-2-((4-((2-(dimethylamino)ethyl)amino)phenyl)amino)-8,9-dihydroimidazo[1,2-a]pyrimido[5,4-e]pyrimidin-5(6H)-one], the pIC50 with LoVo cells was 5.82; in the test on NCI-H1299 cells (NCI-H1299, NCI-H1299 cells), 6.05. Besides, the “Inh. (%) of Wee1 kinase enzyme activity” value on Wee1 (h) (C 1 μm compound) is listed as 96%.
